This assay has as its system liver X receptor α splicing mutant proteins (D5, 5A and 6A). Kind of assay: Reporter assay in a transient expression system in HEK293 cells (TATA-LXREx4-luciferase), ligand-dependent transcription activating ability. The format is cell-based, human. The note with it: three kinds of liver X receptor α splicing mutant proteins. As for the experimental part:
FIG. 5 is a view showing the results of assessment of the function of liver X receptor α splicing mutant proteins (D5, 5A and 6A) by a reporter assay in a transient expression system in HEK293 cells. […] A non-treated section is represented by white, a 1 μg/ml 22R-hydroxycholesterol-treated section is represented by black, and a 1 μg/ml 25-hydroxycholesterol-treated section is represented by gray. In addition, in each test section, 1 μM 9-cis retinoic acid is contained. Letting a value of luciferase activity in a control section (control) in which only a solvent was added to be 100%, a value of luciferase activity in each test section is shown as a relative value. WT means a normal liver X receptor α.
A human fetal kidney-derived HEK293 cell strain (ATCC; CRL-1573) was subcultured in a Dulbecco modified Eagle medium (DMEM) containing 10% bovine fetal serum (FBS) from which low-molecular substances had been removed with charcoal dextran, and penicillin (100 unit/ml) and streptomycin ([…]) as an antibiotic, and not containing phenol red at 37° C. under the presence of 5% CO2. The subcultured HEK293 cell strain was seeded on a 10 cm cell culturing dish to about 2×10^6 cells. […]

On to `CC(C)CC[C@@H](O)[C@@H](C)[C@H]1CC[C@H]2[C@@H]3CC=C4C[C@@H](O)CC[C@]4(C)[C@H]3CC[C@]12C` [22R-oxycholesterol], for which the “transcription activating ability depending on ligand, as compared with that of a normal liver X receptor α” value was “extremely weak or not recognized level”.

Source of the values: patent publication US20060247421A1, “Liver x receptor alpha splicing mutant protein, gene thereof and utilization of the same” (priority 2003, published 2006).
